Measured values taken from patent US20230416299A1, “COMPOUND AND METHOD FOR THE TREATMENT AND DIAGNOSIS OF NEURODEGENERATIVE CONDITIONS” (Swansea University, priority 2013, published 2023).

Tests used:
[1] = system: Islet-1:GFP transgenic zebrafish embryos; format: in vivo
Protocol: (§1) Quantitative PCR. Total RNA was extracted from SN4741 cells and zebrafish treated with the compounds of interest using the RNeasy Mini Kit (Qiagen), 1 μg was treated with RQ1 RNase-free DNase (Promega) and reverse transcribed using Superscript II Reverse Transcriptase (Invitrogen) and random primers (Invitrogen) (RT+ reaction). Parallel reactions without reverse transcriptase enzyme were done as a control (RT− reaction), and Sybergreen real-time quantitative PCR assays were performed. Expression levels were obtained by normalization with the value of the housekeeping gene encoding actin obtained for every sample in parallel assays.
Zebrafish Strain and Mainrenance Zebrafish were raised on a 14/10 h day/night cycle and were kept at 28.5° C. Islet-1:GFP transgenic embryos were obtained via natural spawning and staged in hours or days post fertilization (hpf and dpf) according to Kimmel et al). Embryos older than 24 hpf were treated with 0.03% phenylthiourea (PTU) to inhibit pigmentation. MO injections were performed using splice site specific zebrafish 1xr MO. MO injected embryos were immediately dechorionated and transferred to a 96 well plate and exposed to dimethyl sulfoxide (DMSO) treated or ligand treated medium.
Compound Exposure. Islet-1:GFP embryos were collected by natural mating and immediately (at 1 cell stage) dechorionated and transferred to a 96 well plate. Each of the compounds tested were obtained as 10 mM stock and diluted in embryo medium to a final concentration of 10 μM, and 200 μL was added to each well. DMSO or propan-2-ol treated embryo medium was taken as control. Ligand solutions were replaced every 12 h with fresh ligand solution prepared in PTU treated embryo medium. Embryos were collected at 48 hpf, fixed for 4 h at room temperature with 4% paraformaldehyde and then washed and kept in PBST. Immunocytochemistry was performed using an anti-GFP antibody and fluorescence was viewed and photographed using a Zeiss Axioplan compound microscope and a Zeiss Axiocam digital camera.

[2] = system: Abca1, Abcg1 and Srebf1 transcript levels; experiment: Quantitative PCR of Lxr target genes in SN4741 cells; format: cell-based, mouse; conditions: SN4741 cells treated 3 h
Protocol: as §1

[3] = target: T1, Lxrβ (Homo sapiens, UniProt P55055); experiment: Lxr-responsive luciferase reporter assay (Lxre + Lxrβ) in SN4741 neural cells; format: cell-based, mouse; conditions: for Lxrβ activation, luciferase activity: SN4741 cells, 10 μM, 24 h
T1 construct: expressed in transfected cells; host or cells: SN4741 mouse neuronal cell line
T1 sequence (P55055 1-460): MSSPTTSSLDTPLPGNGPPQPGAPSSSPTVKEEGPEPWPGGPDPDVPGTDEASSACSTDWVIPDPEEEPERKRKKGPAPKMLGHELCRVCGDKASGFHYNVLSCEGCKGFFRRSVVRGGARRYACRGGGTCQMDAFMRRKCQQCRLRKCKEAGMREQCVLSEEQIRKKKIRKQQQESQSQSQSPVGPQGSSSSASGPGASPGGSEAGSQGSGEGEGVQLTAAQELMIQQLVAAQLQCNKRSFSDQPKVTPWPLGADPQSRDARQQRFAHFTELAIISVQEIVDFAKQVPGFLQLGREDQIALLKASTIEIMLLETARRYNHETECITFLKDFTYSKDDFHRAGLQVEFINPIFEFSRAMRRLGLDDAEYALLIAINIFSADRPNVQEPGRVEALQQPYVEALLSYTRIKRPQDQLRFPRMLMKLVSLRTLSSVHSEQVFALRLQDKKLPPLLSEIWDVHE
Excerpt: (§2) Luciferase Reporter Assay.

[4] = target: T2, Lxrβ-LBD (Homo sapiens, UniProt P55055); experiment: LanthaScreen TR-FRET Lxrβ coactivator assay; format: binding
T2 construct: purchased Invitrogen
T2 sequence (P55055 222-460 limits assumed): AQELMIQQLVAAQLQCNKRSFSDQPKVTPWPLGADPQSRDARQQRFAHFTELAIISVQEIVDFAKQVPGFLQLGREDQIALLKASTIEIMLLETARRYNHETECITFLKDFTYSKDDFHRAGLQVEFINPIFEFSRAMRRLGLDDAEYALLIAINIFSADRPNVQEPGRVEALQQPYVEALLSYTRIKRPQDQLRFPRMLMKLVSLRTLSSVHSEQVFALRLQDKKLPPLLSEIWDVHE
Excerpt: Lxrβ Ligand Binding Assay. For Lxrβ ligand binding activity measurement, the applicants used the LANTHASCREEN™ TR-FRET Lxrβ Coactivator Assay (Invitrogen). The assay uses a terbium (Tb)-labeled anti-GST antibody, a fluorescein-labeled coactivator peptide and the Lxrβ-LBD tagged with glutathione-S-transferase (GST). Binding of the agonist/ligand to Lxrβ-LBD causes a conformational change that result in an increase in the affinity of the Lxrβ for the coactivator peptide. The close proximity of the fluorescently labeled coactivator peptide to the Tb-labeled antibody causes an increase in the TR-FRET signal intensity. The TR-FRET ratio of 520/495 was calculated using a Victor multi label reader with an excitation wavelength of 340 nm and emission wavelengths of 520 nm and 495 nm. The activational capacity of potential ligands was tested in a […] polypropylene plate, following the manufacturer's protocol.

[5] = system: mouse E11.5 brain primary cultures; experiment: Mouse E11.5 brain primary cultures (Islet1+, active caspase 3+, BrdU, Nkx6.1 counts); format: cell-based; conditions: for Number of Islet1+ cells: wild type cultures, 3 DIV; for Number of active caspase-3+ cells: 10 μM 3β,7α-diHCA, 3βH,7O-CA, 25-HC, low concentrations of 3β,7β-diHCA, 3β-HCA
Protocol: Primary Brain Cultures. Brains from E11.5 mice were manually dissected, plated on poly-D-lysine (150,000 cells/cm2) and grown in serum-free N2 media consisting of 1:1 mixture of F12 and DMEM with 10 ng/mL insulin, 100 μg/mL apo-transferrin, 100 μM putrescine, 20 nM progesterone, 30 nM selenium, 6 mg/mL glucose, and 1 mg/mL BSA. Cells were treated for 3 days in vitro (DIV) with the compounds of interest, fixed with 4% PFA and processed for staining using appropriate antibodies.
For BrdU analysis, cells were treated with BrdU one hour after plating and media was replaced with fresh medium after 16 h. After a further 2 days in culture, cells were treated for 30 min with 2N HCl and then immunocytochemistry was performed to evaluate the number of double BrdU+;Islet1+ cells (a measure of motor neuron neurogenesis). Hoechst staining was performed by permeabilizing cells with a 0.3% Triton-X 100/PBS solution for 5 min followed by incubation with Hoechst 33258 (Sigma) for 10 min.
Antibodies and Detection Procedures. Cells were fixed in 4% PFA, washed in PBS and blocked in 5% normal goat serum/PBS for 1 h at room temperature. Primary antibodies were diluted in PBS (pH 7.4), 0.3% Triton X-100, 1% BSA and incubations were carried out overnight at +4° C. or at room temperature for 2 h. The antibodies used were anti-: BrdU (1:400; Abeam), Islet-1 (1:100; Developmental Studies Hybridoma Bank), cleaved caspase-3 (Asp175) (1:100; Cell Signaling Technology), tyrosine hydroxylase (TH;1:1000; Pel-Freeze) GABA (1:1,000; Sigma), Brn3a (1:250; Millipore), Nkx6.1 (1:200; Novus Biologicals), choline acetyltransferase (ChAT; 1:500; Millipore) and appropriate secondary antibodies (Jackson ImmunoResearch or Alexa). Cells positive for the corresponding marker were counted directly at the microscope at a magnification of 20 x. Cells were counted in every well, in eight consecutive fields (going from one side of the well to the other, passing through the center), in three different wells per experiment and in three different experiments per condition. Random pictures of the wells were taken for every condition to document the result, and representative pictures were subsequently selected to represent the quantitative data. Photos were acquired with a Zeiss Axioplan microscope and a Hamamatsu camera C4742-95 using the Openlab software.

[6] = target: T3, Lxrα (Homo sapiens, UniProt Q13133); experiment: Lxr-responsive luciferase reporter assay (Lxre + Lxrα) in SN4741 neural cells; format: cell-based, mouse; conditions: for Lxrα activation, luciferase activity: 10 μM, 24 h
T3 construct: expressed in transfected cells; host or cells: SN4741 mouse neuronal cell line
T3 sequence (Q13133 1-447): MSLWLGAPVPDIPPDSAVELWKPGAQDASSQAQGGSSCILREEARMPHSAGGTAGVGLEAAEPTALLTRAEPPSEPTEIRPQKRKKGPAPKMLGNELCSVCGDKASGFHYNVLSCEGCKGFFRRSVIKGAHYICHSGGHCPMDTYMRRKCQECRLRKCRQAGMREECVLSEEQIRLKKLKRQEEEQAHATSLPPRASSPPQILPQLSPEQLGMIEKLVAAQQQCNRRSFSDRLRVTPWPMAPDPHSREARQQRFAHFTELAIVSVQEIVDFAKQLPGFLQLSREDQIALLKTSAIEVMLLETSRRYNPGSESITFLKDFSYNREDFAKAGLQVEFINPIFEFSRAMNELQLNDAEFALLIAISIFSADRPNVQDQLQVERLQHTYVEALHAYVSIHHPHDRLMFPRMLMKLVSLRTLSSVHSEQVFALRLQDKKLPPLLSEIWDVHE
Excerpt: as §2

[7] = target: T4, Fxr (Homo sapiens, UniProt Q96RI1); experiment: Fxr-responsive luciferase reporter assay (Fxre + Fxr) in SN4741 neural cells; format: cell-based, mouse; conditions: 24 h
T4 construct: expressed in transfected cells; host or cells: SN4741 mouse neuronal cell line
T4 sequence (Q96RI1 1-486): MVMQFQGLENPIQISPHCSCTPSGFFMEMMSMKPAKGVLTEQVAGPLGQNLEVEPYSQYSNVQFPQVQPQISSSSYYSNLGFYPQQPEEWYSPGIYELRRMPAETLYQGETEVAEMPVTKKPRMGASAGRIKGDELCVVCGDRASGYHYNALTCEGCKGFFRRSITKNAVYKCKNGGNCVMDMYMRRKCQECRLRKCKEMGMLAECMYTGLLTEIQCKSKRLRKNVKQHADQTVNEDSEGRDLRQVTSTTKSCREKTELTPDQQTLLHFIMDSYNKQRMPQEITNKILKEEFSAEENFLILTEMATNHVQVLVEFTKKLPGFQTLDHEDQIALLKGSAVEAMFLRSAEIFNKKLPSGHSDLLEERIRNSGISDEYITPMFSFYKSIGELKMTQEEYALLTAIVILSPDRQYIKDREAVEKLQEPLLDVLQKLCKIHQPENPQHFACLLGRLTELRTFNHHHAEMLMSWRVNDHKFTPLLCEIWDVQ
Protocol: (§3) LC-ESI-MS on the LTQ-Orbitrap LC-ESI-MS and LC-ESI-MSn was performed using an Ultimate 3000 HPLC system (Dionex, Surrey, UK) linked to the ESI source of a LTQ-Orbitrap XL or LTQ-Orbitrap Velos (Thermo Fisher, San Jose, CA) mass spectrometer. Luciferase Reporter Assay. The ability of oxysterols and their acidic metabolites to activate several nuclear receptors i.e. Lxrα and β, Fxr, Vdr, Nurrl was tested in luciferase assays. Transient transfection studies were performed in the mouse neuronal cell line SN4741. This cell line was selected as the oxysterols and acidic metabolites tested were initially identified in CSF. Cells were plated in 24-well plates (5×10^5 cells/well) 24 hr before transfection and transfected with 1 μg of plasmid DNA/well complexed with 2 μL of Lipofectamine 2000 (Invitrogen). Cells were transfected with 400 ng of a Lxr-, Fxr-, Vdr- or Nurrl−responsive luciferase reporter construct, and 200 ng of Lxrα, Lxrβ, Fxr, Vdr or Nurrl. A reporter gene expressing the Renilla luciferase (pRL-TK, Promega) was co-transfected in all experiments as an internal control for normalization of transfection efficiency. After a 12 h incubation, the lipid/DNA mix was replaced with fresh 2.5% serum medium containing vehicle or appropriate ligand (10 μM), as specified in each experiment. […]

[8] = system: Nur-related factor 1 (Nurrl)/retinoid X receptor (Rxr) heterodimers; conditions: SN4741 cells, 10 μM
Protocol: as §3

`CC(CCC[C@@H](C)[C@H]1CC[C@H]2[C@@H]3[C@@H](O)C=C4C[C@@H](O)CC[C@]4(C)[C@H]3CC[C@]12C)C(=O)O` (stereo partly drawn) [3β,7β-diHCA, 3β,7β-dihydroxycholest-5-en-26-oic acid] was tested, and the “Toxicity to zebrafish embryos” value ([1]; 10 μM in medium) was “deleterious toxic effect which impaired the survival of the fish”, the “Abca1, Abcg1 and Srebf1 transcript levels” value [2] was “induced transcription, but to a lesser extent” and the “Lxrβ activation, luciferase activity” value [3] was “have the ability to activate both Lxrs”. The “Lxrβ activational capacity in combination with 22R-HC” value ([3]; acid 10 μM + 22R-HC 10 μM) was “No additive effect was observed”, the “Competitor concentration with significant difference (p<0.05) from 10 μM 3β,7α-diHCA alone in TR-FRET Lxrβ coactivator assay” value ([4]; added to 10 μM 3β,7α-diHCA) was at least 2 µM and the “Competition with 3β,7α-diHCA in TR-FRET Lxrβ coactivator assay” value ([4]; increasing concentrations with 3β,7α-diHCA at its most potent concentration) was “the effect of 3β,7α-diHCA was reduced to that of the latter acids”. For the same compound, the “Concentration at which toxicity is initiated (active caspase-3+ cells)” value ([5]; mouse, E11.5 mouse brain primary cultures, 3 days) was 1 µM, the “Number of Islet1+ cells” value [5] was “caused the loss of Islet1+ cells in the cultures” and the “Number of active caspase-3+ cells” value ([5]; wt cultures) was “increased the number of active caspase-3+ cells”. For the same compound, the “Lxrα activation, luciferase activity” value [6] was “have the ability to activate both Lxrs”.

With `C[C@H](CCC(=O)O)[C@H]1CC[C@H]2[C@@H]3CC=C4C[C@@H](O)CC[C@]4(C)[C@H]3CC[C@]12C` [3βH-Δ^5-BA, 3β-hydroxychol-5-en-24-oic acid] the “Fxr activation, luciferase activity” value [7] was “also activated Fxr, but was less potent than CDCA”.

For `CC1=C(/C=C/C(C)=C\C=C\C(C)=C\C(=O)O)C(C)(C)CCC1` [9-cis-RA, 9-cis-retinoic acid], the “Activation of DR5 element luciferase reporter” value [8] was “activated this reporter”.

`C[C@H](CCCC(C)(C)O)[C@H]1CC[C@H]2[C@@H]3CC=C4C[C@@H](O)CC[C@]4(C)[C@H]3CC[C@]12C` [25-HC, cholest-5-ene-3β,25-diol] was tested, and the “Islet-GFP expression in cranial nerves” value ([1]; 10 μM, 48 hpf) was “modest increase in the levels of Islet-1”, the “Lxrβ activation, luciferase activity” value [3] was “activate Lxr” and the “Effect on active caspase-3+ cells with GGPP” value ([5]; GGPP 10 μM, 3β,7β-diHCA, 3β-HCA at 2 μM) was “GGPP sensitive manner”. The “Effect on Islet1+ cells in cultures from Lxrα−/−β−/− mice” value ([5]; Lxrα−/−β−/− cultures) was “blocked in cultures from Lxrα−/−β−/−animals”, the “Number of Islet1+ cells” value [5] was “increase the number of Islet1+ oculomotor cells” and the “Effect on Islet1+ cells with Lxr antagonist GGPP” value ([5]; wt cultures, GGPP 10 μM) was “inhibited by the Lxr antagonist GGPP”. The “Number of active caspase-3+ cells” value ([5]; wt cultures) was “reduced the number of active caspase-3+ cells”, the “Lxrα activation, luciferase activity” value [6] was “activate Lxr” and the “Lxr luciferase activity with the Lxr antagonist GGPP” value ([6]; metabolite 10 μM + GGPP 10 μM) was “similarly blocked”.
